System: G4 DNA [(CG3)2CGC(AG3)2G] (DNA, G4) CGGGCGGGCGCAGGGAGGGG
Experiment: UV-vis mole-ratio titration, global fit
Settings: buffer pH 7.1, 25 °C; intrinsic, two equivalent anticooperative sites, ω 0.43; stepwise fit equally good: 7.07, 5.79

Compound: C[n+]1ccc(-c2c3nc(c(-c4cc[n+](C)cc4)c4ccc([nH]4)c(-c4cc[n+](C)cc4)c4nc(c(-c5cc[n+](C)cc5)c5ccc2[nH]5)C=C4)C=C3)cc1
- lg K1-2: 6.79
